Source: patent publication US20070149456A1, “Epithelial sodium channel inhibiting agents and uses therefor” (University of Pittsburgh, priority 2005, published 2007)
Where two headings read alike, the source gives them in different places.

Molecular target: T1, mouse ENaC (Mus musculus, UniProt Q61180+Q9WU38+Q9WU39, DEL206-231)
T1 construct: expressed in transfected cells; host or cells: Xenopus laevis oocytes (cRNA injection)
T1 sequence (Q61180 with tags, fused parts or gaps DEL206-231): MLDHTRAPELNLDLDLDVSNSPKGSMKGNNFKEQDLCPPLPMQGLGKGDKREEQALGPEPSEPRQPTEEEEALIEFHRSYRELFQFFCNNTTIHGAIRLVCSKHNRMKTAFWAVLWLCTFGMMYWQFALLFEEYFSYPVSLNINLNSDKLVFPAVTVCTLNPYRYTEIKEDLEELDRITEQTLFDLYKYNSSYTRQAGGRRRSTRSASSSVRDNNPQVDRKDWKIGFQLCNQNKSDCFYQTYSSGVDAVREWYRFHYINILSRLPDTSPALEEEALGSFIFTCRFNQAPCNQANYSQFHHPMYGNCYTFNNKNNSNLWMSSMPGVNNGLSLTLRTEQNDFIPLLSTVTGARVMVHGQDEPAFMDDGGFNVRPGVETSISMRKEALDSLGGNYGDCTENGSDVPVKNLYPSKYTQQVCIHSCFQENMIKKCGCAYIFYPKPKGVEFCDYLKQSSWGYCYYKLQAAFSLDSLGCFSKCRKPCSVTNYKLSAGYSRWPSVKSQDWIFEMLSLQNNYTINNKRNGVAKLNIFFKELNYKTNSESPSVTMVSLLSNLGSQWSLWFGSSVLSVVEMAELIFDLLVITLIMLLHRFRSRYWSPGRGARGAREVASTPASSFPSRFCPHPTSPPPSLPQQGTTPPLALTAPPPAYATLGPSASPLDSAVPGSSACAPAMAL
T1 sequence (Q9WU38 1-638): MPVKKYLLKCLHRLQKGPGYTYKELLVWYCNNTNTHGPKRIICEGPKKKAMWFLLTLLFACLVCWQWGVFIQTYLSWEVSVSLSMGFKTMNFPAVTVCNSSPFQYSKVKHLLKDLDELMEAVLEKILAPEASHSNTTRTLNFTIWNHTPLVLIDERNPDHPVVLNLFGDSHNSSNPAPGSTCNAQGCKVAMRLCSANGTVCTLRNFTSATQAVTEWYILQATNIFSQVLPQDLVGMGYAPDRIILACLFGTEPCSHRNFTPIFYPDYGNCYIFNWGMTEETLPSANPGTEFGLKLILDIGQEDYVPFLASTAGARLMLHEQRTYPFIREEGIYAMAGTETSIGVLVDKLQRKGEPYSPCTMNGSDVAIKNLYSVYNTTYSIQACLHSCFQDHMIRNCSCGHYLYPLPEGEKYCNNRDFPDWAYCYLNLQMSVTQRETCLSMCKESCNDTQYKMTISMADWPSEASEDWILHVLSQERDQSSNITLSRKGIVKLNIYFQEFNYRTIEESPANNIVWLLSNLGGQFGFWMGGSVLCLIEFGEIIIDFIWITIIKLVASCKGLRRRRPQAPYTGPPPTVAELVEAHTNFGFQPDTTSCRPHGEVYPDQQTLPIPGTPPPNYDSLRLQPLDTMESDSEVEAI
T1 sequence (Q9WU39 1-655): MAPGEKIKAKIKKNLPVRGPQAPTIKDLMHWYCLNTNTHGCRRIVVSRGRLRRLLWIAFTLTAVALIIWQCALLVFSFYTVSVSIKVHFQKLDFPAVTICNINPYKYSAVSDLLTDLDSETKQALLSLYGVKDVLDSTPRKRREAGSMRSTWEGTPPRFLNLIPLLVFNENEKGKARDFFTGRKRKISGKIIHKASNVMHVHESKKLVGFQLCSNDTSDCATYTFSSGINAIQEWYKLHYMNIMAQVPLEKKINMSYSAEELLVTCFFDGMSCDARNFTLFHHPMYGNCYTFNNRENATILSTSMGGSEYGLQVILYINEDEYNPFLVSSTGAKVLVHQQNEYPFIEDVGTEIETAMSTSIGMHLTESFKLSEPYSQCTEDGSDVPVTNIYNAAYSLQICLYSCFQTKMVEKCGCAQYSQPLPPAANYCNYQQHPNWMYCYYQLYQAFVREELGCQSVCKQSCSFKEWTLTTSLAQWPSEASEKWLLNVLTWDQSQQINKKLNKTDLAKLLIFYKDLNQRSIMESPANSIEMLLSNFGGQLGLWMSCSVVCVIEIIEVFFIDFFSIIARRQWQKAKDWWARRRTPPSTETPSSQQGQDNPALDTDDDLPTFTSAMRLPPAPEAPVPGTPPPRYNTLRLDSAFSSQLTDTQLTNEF
Assay: Two-electrode voltage clamp, amiloride-sensitive whole cell Na+ current in Xenopus oocytes expressing wild-type αβγ ENaC
Assay type: cell-based
Text: Oocyte Expression—cRNAs for α, β, γ mouse ENaC (wild-type and mutant) subunits and mouse prostasin were synthesized with T3 or T7 m-Message mMachineTM (Ambion, Austin, Tex.). Subunits carrying furin cleavage consensus site mutations and the corresponding wild-type subunits have amino-terminal HA and carboxyl-terminal V5 tags (Hughey, R. P., Bruns, J. B., Kinlough, C. L., Harkleroad, K. L., Tong, Q., Carattino, M. D., Johnson, J. P., Stockand, J. D., and Kleyman, T. R. (2004) J. Biol. Chem. 279, 18111-18114 18). Stage V-VI Xenopus laevis oocytes were pretreated with 1.5 mg/ml of type IV collagenase and injected with 0.5-2 ng of cRNA/subunit. Injected oocytes were maintained as previously reported (Carattino, M. D., Hill, W. G., and Kleyman, T. R. (2003), Arachidonic Acid Regulates Surface Expression of Epithelial Sodium Channels, J Biol. Chem. 278, 36202-36213 29).
Two-electrode Voltage Clamp—Two-electrode voltage clamp (TEV) was performed as previously described (Carattino, M. D., Hill, W. G., and Kleyman, T. R. (2003) J Biol. Chem. 278, 36202-36213 29). The extracellular solution (TEV solution) was (in mM): 110 NaCl, 2 KCl, 1.54 CaCl2, 10 HEPES, pH 7.4, or otherwise as indicated. […] Experiments with oocytes co-expressing ENaC and prostasin and the corresponding controls were performed in the presence of aprotinin (1 μM) to impede any potential degradation of α-26 by prostasin.
Data and Statistical Analyses—and mean time of inhibition are expressed as the mean with a 95% confidence interval (CI); otherwise, data were expressed as the mean ±S.E. (n), where “n” equals the number of independent experiments analyzed. IC50 was estimated from normalized currents plotted as a function of the peptide concentration fitted, as shown in Equation 1 y=t/(1+10^(logX−log/C50)) (Eq. 1) where y is the response variable, X is the concentration of peptide, and IC50 is the concentration of peptide that provokes a response half way between the baseline (t) and maximum response. […] Results

Ac-DLRGALPHPLQRLRTPPPPNPARSAR-NH2 [α-26]
Ki: ~3000 nM
time required to achieve half maximal inhibition (1 μM α-26): 42 s
IC50 (amiloride-sensitive current, 3 min perfusion with peptide (FIG. 3A), read-out: IC50, inhibition of wild-type αβγ): 2800 nM
IC50 (holding potential −20 mV, read-out: IC50 at holding potential −20 mV): 2900 nM
IC50 (holding potential −100 mV, read-out: IC50 at holding potential −100 mV): 2900 nM
reversibility of block (α-26 1 μM, washout (FIG. 3D)): reversible inhibitor
